pIC50: −log10 of the molar value.
Key:
[1] = species: Rattus norvegicus; conditions: dose 3 mg/kg; route intravenous
Description: Change in systolic blood pressure(SBP) after intravenous administration of 3 mg/kg in rats compared with SBP before dosing

[2] = biological target: Glutamate receptor ionotropic, AMPA (Rattus norvegicus, UniProt P19490+P19491+P19492+P19493)
[3] = biological target: Glutamate receptor ionotropic, AMPA (Rattus norvegicus) (UniProt P19491+P19492+P19493+P19490); experiment: Antagonist activity for [Ca2+] permeable Ionotropic glutamate receptor AMPA expressed in Xenopus oocytes by injection of rat brain mRNA at 1 uM; format: functional, cell-based; conditions: Oocyte

inhibition [3]	Structure (SMILES)	Delta SBP [1]	pIC50 [2]
	NC(=O)C[C@@H](NC(=O)Cc1cccc2ccccc12)C(=O)N1CCC(CNCCCCNCC2CCNCC2)CC1	-75 mmHg	6.57
	O=C(Cc1cccc2ccccc12)N1CCC(CNCCCCNCCN2CCCCC2)CC1	5 mmHg	6.72
	NCCCNCCCCNCC1CCN(C(=O)Cc2cccc3ccccc23)CC1	-35 mmHg	6.49
	O=C(Cc1cccc2ccccc12)N1CCC(CNCCCCNCCCn2ccnc2)CC1	-25 mmHg	6.59
27%	CN1CCCCC1CNCCCCNCC1CCN(C(=O)Cc2cccc3ccccc23)CC1 (stereo not given)	11 mmHg	
	NCCNCCCCNCC1CCN(C(=O)Cc2cccc3ccccc23)CC1	-50 mmHg	6.48
	O=C(Cc1cccc2ccccc12)N1CCC(CNCCCCNCC2CCNCC2)CC1	-120 mmHg	5.89
28%	c1ccc2c(CCN3CCC(CNCCCCNCC4CCNCC4)CC3)cccc2c1		
	O=C(Cc1cccc2ccccc12)N1CCC(CNCCCCNCC2CCCNC2)CC1 (stereo not given)	-58 mmHg	6.09
	O=C(Cc1cccc2ccccc12)N1CCC(CNCCCCNCC2CCCN2)CC1 (stereo not given)	0 mmHg	6.14
	O=C(Cc1cccc2ccccc12)NCC(=O)N1CCC(CNCCCCNCC2CCNCC2)CC1	-50 mmHg	6.31
	CN1CCC(CNCCCCNCC2CCN(C(=O)Cc3cccc4ccccc34)CC2)CC1	-50 mmHg	6.24
	O=C(Cc1cccc2ccccc12)N1CCC(CNCCCCNCC2CCCCN2)CC1 (stereo not given)	0 mmHg	5.96
18%	O=C(Cc1cccc2ccccc12)N1CCC(CNCCCCNCCN2CCOCC2)CC1	0 mmHg	
	CN1CCCC1CCNCCCCNCC1CCN(C(=O)Cc2cccc3ccccc23)CC1 (stereo not given)	-55 mmHg	6.11
	O=C(Cc1cccc2ccccc12)NCCCCCC(=O)N1CCC(CNCCCCNCC2CCNCC2)CC1	-40 mmHg	6.38
41%	CN1CCCC1CNCCCCNCC1CCN(C(=O)Cc2cccc3ccccc23)CC1 (stereo not given)	13 mmHg	
	O=C(Cc1cccc2ccccc12)N1CCC(CNCCCCNCC2CCN(c3ccncc3)CC2)CC1	-43 mmHg	6.77

— ChEMBL document CHEMBL1134057, “Synthesis of polyamine derivatives having non-hypotensive Ca2 +-permeable AMPA receptor antagonist activity” (Bioorg Med Chem Lett, 2001)
